Here are results for one compound from US20220218831A1, “DEGRADATION OF AURORA KINASE (AURK) BY CONJUGATION OF AURK INHIBITORS WITH E3 LIGASE LIGAND” (Nemucore Medical Innovations, Inc., priority 2019, published 2022).

A short description of the test: Combination of the free target ligand of Formula II (GSK-1070916) with JQ1 (FIG. 3). The conditions noted are these: GSK-1070916 combined with JQ1; FIG. 3 legend, no model or method printed.

Consider `CCn1cc(-c2ccnc3[nH]c(-c4cccc(CN(C)C)c4)cc23)c(-c2ccc(NC(=O)N(C)C)cc2)n1` [GSK-1070916], for which the “effect of combination with JQ1” value is reported as “synergistic effect”.
